Legend:
[1] = system: 22Rv1 cells; assay: Intracellular ROS (CM-H2DCFDA, flow cytometry); assay type: cell-based, human; details: 2 h of treatment
Description: Intracellular ROS levels were estimated using the ROS-sensitive CM-H2DCFDA reagent (Cat. No. C6827, Molecular probes, Invitrogen, Eugene, OR, USA) as described before. In brief, 22Rv1 cells were seeded in 12-well plates (0.2 × 10^6 cells/well in 1 mL/well of media) and incubated overnight. The media was changed into freshly made pre-warmed 4 µM CM-H2DCFDA/PBS (0.5 mL/well) and incubated for 30 min (37 °C, 5% CO2, in the dark). Then, the CM-H2DCFDA solution was exchanged with 1 mL/well of pre-warmed PBS containing the drugs or H2O2 (positive control) at the indicated concentrations. After 2 h of incubation the cells were trypsinized and immediately analyzed by flow cytometry technique according to the manufacture’s protocols.

[2] = system: MRC-9 cells; assay: MTT cytotoxicity assay in MRC-9 cells; assay type: cell-based; details: Homo sapiens, MRC9, 48 h of treatment, non-cancer
Description: (§1) Dr. Dr. med. Sonja Loges (University Medical Center Hamburg-Eppendorf, Hamburg, Germany). Cells were cultured according to the manufacturers’ instructions and were recently authenticated by a commercial service (Multiplexion, Heidelberg, Germany). Culture conditions are described in the Supplementary Information.
(§2) MTT (3-(4,5-dimethylthiazol-2-yl)-2,5-diphenyltetrazolium bromide) cytotoxicity assay was used for the evaluation of cytotoxicity of the compounds or their combinations. Experiments were performed as previously described. In brief, 6000 cells/well were seeded in 96-well plate, incubated overnight, and treated with the drugs in 100 µL/well of 10% FBS/RPMI media containing 2 g/L of D-(+)-glucose for 48 h, unless otherwise stated. For 2 h treatment the cells were treated with the drugs for 2 h in the culture media, then the media was exchanged to fresh drug-free media (100 µL/well) containing MTT reagent and the further steps were performed as previously described.

[3] = system: VCaP cells; assay: MTT cytotoxicity assay in VCaP cells; assay type: cell-based; details: Homo sapiens, 48 h of treatment, cancer
Description: as §1, §2

[4] = system: 22Rv1 cells; assay: Western blotting of treated cells; assay type: cell-based, human
Description: Preparation of protein extracts for western blotting was performed as described previously. In brief, for western blotting, 1 × 10^6 cells/well were seeded in Petri dishes (ø 6 cm TC Dish (Sarstedt, Numbrecht, Germany) in 5 mL/dish), incubated overnight and treated with drugs in 5 mL/dish for an indicated time. Cells were harvested using a cell scraper, pelleted, and resuspended in the lysis buffer containing protease and phosphatase inhibitors. Further sample preparation and western blotting were performed as previously described with slight modifications. Relative optical density of the detected bands was quantified with Quantity One 4.6 software (Bio-Rad, Hercules, CA, USA). The primary and secondary antibodies used are listed in the Supplementary Information.

[5] = system: HEK293 cells; assay: MTT cytotoxicity assay in HEK293 cells; assay type: cell-based; details: Homo sapiens, 48 h of treatment, non-cancer
Description: as §1, §2

[6] = system: PNT2 cells; assay: MTT cytotoxicity assay in PNT2 cells; assay type: cell-based, human; details: 48 h of treatment
From the text: For general experiments human prostate cancer cell lines PC-3 and DU145 (docetaxel-resistant, androgen-independent, AR-FL(−), AR-V7(−)), 22Rv1 and VCaP (docetaxel-sensitive, androgen-independent, AR-FL(+), AR-V7(+), and LNCaP (docetaxel sensitive, androgen-dependent, AR-FL(+), AR-V7(−) were used. PC-3, 22Rv1, LNCaP cells as well as the human prostate non-cancer cells PNT2 and RWPE-1 were purchased from ATCC (Manassas, VA, USA). VCaP were purchased from ECACC (Salisbury, UK). The human fibroblast cell line MRC-9, the human embryonic kidney cell line HEK 293T, as well as the human umbilical vascular endothelial cell line HUVEC were kindly donated by Prof. Dr. Dr. med. Sonja Loges (University Medical Center Hamburg-Eppendorf, Hamburg, Germany). Cells were cultured according to the manufacturers’ instructions and were recently authenticated by a commercial service (Multiplexion, Heidelberg, Germany). Culture conditions are described in the Supplementary Information.
as §2
Table S4. Cytotoxic activity of the synthesized compounds. Cytotoxicity was determined in human prostate cancer PC-3 cells versus human prostate non-cancer
PNT2 cells after 48 h of treatment, as well as its ratio. IC50 was evaluated using MTT assay. SI–selectivity index. #–the IC50s in both cell lines were >100 µM.
Anisomycin was used as a reference substance.
No Formula IC50(PC-3) IC50(PNT2) SI […]

[7] = system: HUVEC cells; assay: MTT cytotoxicity assay in HUVEC cells; assay type: cell-based; details: Homo sapiens, 48 h of treatment, non-cancer
Description: as §1, §2

CC1(C)OC2OC(C(O)COC3=CC(=O)c4cccc(O)c4C3=O)C(O)C2O1 (stereo not drawn) [Compound 11]
effect on ROS level [1]: remarkable and significant increase of the ROS level | IC50 [2]: 3.74 µM | IC50 [3]: 3.11 µM | cleavage of caspase-9 ([4]; 2 h and 48 h treatment): observed already after 2 h | ERK1/2 activity ([4]; 2 h treatment): suppressed | MEK1/2 alteration ([4]; 2 h treatment): No significant alteration | activation of Akt ([4]; 2 h treatment): slight Akt activation | activation of p38 and JNK1/2 ([4]; 2 h treatment): pronounced activation | AR-FL and AR-V7 expression ([4]; 48 h treatment): downregulated both, AR full length (AR-FL) and AR-V7 | Bax and Bcl-2 expression ([4]; 48 h treatment): up-regulation of Bax and down-regulation of Bcl-2 | LC3B-II and SQSTM1 levels (autophagy markers) ([4]; pre-cytotoxic and cytotoxic concentrations, 48 h): accumulation of both, LC3B-II and SQSTM1 | IC50 [5]: 4.46 µM | IC50 [6]: 4.96 µM | IC50 ([6]; Homo sapiens, PNT2, 48 h): 4.96 µM | IC50 [7]: 4.31 µM

Source: article PMC6896172, “Successful Targeting of the Warburg Effect in Prostate Cancer by Glucose-Conjugated 1,4-Naphthoquinones” (Cancers, 2019)
